We go through 5 compounds from US11684594B2, “Antifungal prophylaxis for cornea” (PRESIDENT AND FELLOWS OF HARVARD COLLEGE, priority 2020, dated 2023).

Entries after “also recorded” stand apart in the source; their conditions may differ. Where two headings read alike, the source gives them in different places.

One data set concerns C. albicans (ATCC 24433). As to the kind of experiment: In vitro time kill test, yeast. In kind it is cell-based, Candida albicans. Conditions: for Ratio fungicidal activity/cytotoxicity: FIG. 3, # of log10 reduction / fold-change in Trypan Blue staining vs PBS (HCLE), 1 min contact, C. albicans; for Reduction in viable colonies: FIG. 1A, full strength. The protocol:
(§1) In Vitro Time Kill Tests. Microtiter time kill tests were carried out in vitro according to the published CLSI methods (M27-A2).^22
The inoculum was prepared by adjustment of the optical density at 600 nm (OD600) to 1.0 (corresponding to approximately 1×10^6 CFU/mL), and dilution by 1:10 in the final solution. To confirm the starting inoculum size, yeasts were plated […] and colonies counted after growth for 24 hrs at 37° C. The test solutions were neutralized at each time point by ten-fold dilution in Dey-Engley neutralizing broth (Sigma-Aldrich; St Louis, Mo.), and serially track diluted (PMID: 9343684) on Sabouraud dextrose agar (six serial 1:10 dilutions, 0.01 mL each) in technical triplicate. Colonies were counted and recorded following aerobic incubation for 24 hrs at 37° C.
(§2) To investigate the fungicidal activity of various antibiotics and antimicrobials, the reduction in fungal load after short contact times (0-15 min, FIGS. 2-3), to account for the effect of rapid dilution by the tear film, as occurs in patients after topical instillation, was measured.^23 The detection limit for time kill tests was approximately 100 CFU/mL for C. albicans, and 1 CFU/mL for F. solani and A. fumigatus (corresponding to a ≥3 log difference from the starting inoculum). 20-300 cells were considered a reliable counting range per dilution, and values were averaged when more than one dilution in the same plate were within this range.

The subject of data set [1] is Candida albicans (ATCC 24433), Fusarium solani (ATCC MYA-3636), and Aspergillus fumigatus (ATCC MYA-3626). As to the kind of experiment: In vitro antifungal testing, statements not resolved by species. In kind it is cell-based. Conditions: for Efficacy/toxicity ratio, overall rank: fungicidal activity vs HCLE cytotoxicity; for Efficacy/toxicity ratio, overall rank / Antifungal / fungicidal activity in vitro: species not resolved; for Antifungal / fungicidal activity in vitro: agents at eye-drop or stated concentration. The procedure: Several commonly used antibiotics were tested in vitro against Candida albicans (ATCC 24433), Fusarium solani (ATCC MYA-3636), and Aspergillus fumigatus (ATCC MYA-3626). Time kill activity and minimum inhibitory concentrations (MIC) were determined. Also the antiseptics benzalkonium chloride (BAK), povidone-iodine (PI), and ionic liquids (ILs) consisting of a 1:1 mixture of choline and undecanoic acid, were tested. Toxicity was assayed in vitro on cultures of human corneal epithelial cells, subjected to Trypan Blue staining. Adhesion and tissue invasion experiments were also carried out, with or without γ-irradiation, and by analysis with fluorescent microscopy.
as §1

Data set [2] has as its system A. fumigatus (ATCC MYA-3626). As to the kind of experiment: In vitro time kill test, filamentous fungi. It is filed as cell-based, Aspergillus fumigatus. Conditions: for Ratio fungicidal activity/cytotoxicity: FIG. 3, # of log10 reduction / fold-change in Trypan Blue staining vs PBS (HCLE), 1 min contact, A. fumigatus. The procedure: as §1
(§3) ii) Filamentous fungi: The antibiotic solutions, at either full or 1/10 strength, and antiseptics were inoculated with approximately 2×10^5-2×10^6 conidia/mL of F. solani or A. fumigatus in RPMI broth (buffered with MOPS at pH 7.0; Mediatech; Manassas, Va.) for 0-15 min. Conidia were collected by flooding the agar plates with 10 mL of sterile 1×PBS and 0.1% Tween® 20 (Sigma Aldrich; St Louis, Mo.). The solution was transferred to a sterile conical tube, and particles were allowed to settle for 10 min. The resulting supernatant was transferred to a new sterile conical tube and centrifuged at 3,000×g for 5 min. The supernatant was discarded, the remaining pellet was re-suspended in RPMI broth (buffered with MOPS at pH 7.0), and the OD600 was adjusted to 1.0. In the final test solutions, at each time point the inoculum was diluted 1:10 and neutralized in Dey-Engley neutralizing broth (Sigma-Aldrich; St Louis, Mo.). Neutralized cultures were then serially diluted and plated on Sabouraud dextrose agar (two serial 1:10 dilutions, 0.1 mL each) in technical duplicate. Viable conidia were counted and recorded following aerobic incubation for 48 hrs (or as soon as growth was visible) at 25-35° C.
as §2

For data set [3], the system named is human corneal-limbal epithelial cells (HCLE). In kind it is cell-based. The note with it: for Cytotoxicity / toxicity: HCLE cells, post-exposure Trypan blue staining; for Trypan Blue staining (% stained area per image) compared to control treatment TX-100 (1%): FIG. 2A, confluent HCLE monolayers, 1 min of contact, BAK 40 µg/mL, PI 0.5%, #3-IL 10 mM. The procedure: In Vitro Toxicity Tests. Trypan Blue assays for toxicity of various antimicrobial agents were conducted using human corneal cells. Telomerase-immortalized human corneal-limbal epithelial cells (HCLE) were thawed at 37° C. and quickly transferred to a sterile T75 cell culture flask. Cells were grown in keratinocyte serum-free medium (KSFM; Gibco™; Thermofisher Scientific; Waltham, Mass.) supplemented with bovine pituitary extract (25 μg/mL), epidermal growth factor (0.2 ng/mL), calcium chloride (0.4 mM CaCl2[…]2H2O; Sigma-Aldrich; St Louis, Mo.), and 1× penicillin/streptomycin, at 37° C. with 5% CO2. Once cells were confluent, they were passaged following trypsinization in 12- or 24-well plates. After incubation with Trypsin-EDTA (0.05%, Gibco™; Thermofisher Scientific; Waltham, Mass.) for 5-10 min at 37° C. with 5% CO2, the reaction was stopped with an equivalent volume of neutralizing medium (Dulbecco's Modified Eagle Medium/Nutrient Mixture F-12, DMEM/F-12, with HEPES and 10% newborn calf serum), centrifuged at 5,000×g for 5 min, and re-suspended in supplemented KSFM. Experiments were performed using cells from passages 31 to 36. Once cells reached confluency, they were gently washed twice with DMEM/F-12 (Gibco™; Thermofisher Scientific; Waltham, Mass.) and incubated with an antimicrobial agent for 1 min (n=2 wells per group). Controls included 1×PBS (diluent) and 1% TX-100 (cell permeabilizer). After exposure to various agents, the cells were washed three times with DMEM/F-12, incubated with 0.2% Trypan Blue for 5 min, and washed again three times with DMEM/F-12. The remaining media was aspirated and replaced with 1×PBS for imaging. Macro-images of the culture plate were taken with a smartphone camera (iPhone 7; Apple Inc.; Cupertino, Calif.), and 10× images were taken with an inverted microscope (Eclipse TS100; Nikon; Tokyo, Japan) attached to a digital camera (SPOT Insight Fire Wire; Diagnostic Instruments Inc.; Sterling Heights, Mich.). 3-6 images/well were obtained in clockwise direction from areas immediately adjacent to the center of the well, and without overlapping areas. Images were quantified in ImageJ Fiji software to determine the amount of cell uptake of Trypan Blue. Macros were created from the Color Threshoulder plugin (G. Landini) to batch process the images after color matching in Photoshop to reference images per treatment group. % Area of Trypan Blue staining per image was calculated as follows: (area of blue/area of all)×100%.

In data set [4] the test system is Candida, Aspergillus, and Fusarium. Conditions: 0.01% hypochlorous acid (Avenova), cited from earlier work.
The conditions of data set [5]: cited from earlier work; for Tolerability / ocular safety (words): clinical or long-term topical ocular use.
For data set [6] the following is noted: 1:1 IL at 10 mM in 1×PBS.
The subject of data set [7] is F. solani (ATCC MYA-3636). As to the kind of experiment: In vitro time kill test, filamentous fungi. In kind it is cell-based, Fusarium solani. Conditions: for Reduction in viable conidia: FIG. 2C, within 1 min of contact, Polytrim full strength, PI 0.5%, BAK 40 µg/mL, #3-IL 10 mM; for Ratio fungicidal activity/cytotoxicity: FIG. 3, # of log10 reduction / fold-change in Trypan Blue staining vs PBS (HCLE), 1 min contact, F. solani. The procedure:
as §1, §3, §2

In the case of `N=C(NCCCCCCNC(=N)NC(=N)Nc1ccc(Cl)cc1)NC(=N)Nc1ccc(Cl)cc1.O=C(O)[C@H](O)[C@@H](O)[C@H](O)[C@H](O)CO.O=C(O)[C@H](O)[C@@H](O)[C@H](O)[C@H](O)CO` [CDG, chlorhexidine digluconate], the “Contact time required for the same effect as PI and the novel IL (≥3 log10 reduction)” value in the data set with C. albicans (ATCC 24433) (FIG. 2B, CDG 0.05%) amounted to 5 min. In data set [1], the “Efficacy/toxicity ratio, overall rank” value was “rank lower than PI”; the “Antifungal / fungicidal activity in vitro” value was “rapid and broad fungicidal activity; also recorded: effective”. Also, the Ratio fungicidal activity/cytotoxicity entry in data set [2] is reported as “lowest ratio”. Moreover, in data set [3], the “Cytotoxicity / toxicity” value was “high cytotoxicity; also recorded: too toxic”.
Turning to `OCl` [hypochlorous acid], the “Fungicidal activity (words)” value in data set [4] was “rapid fungicidal and sporicidal activity within one minute of exposure time”; in data set [4] (listed as Hypochlorous acid), “highly effective against fungi”. Also, the “Tolerability / ocular safety (words)” value in data set [5] was “well tolerated”; in data set [5] (listed as Hypochlorous acid), “easily tolerated”.
On to “Choline undecanoate (1:1) [choline-undecanoate IL]”, for which the “Reduction in viable C. albicans” value with C. albicans (ATCC 24433) (10 mM, within 1 min) is listed as 1-4 log. For the same compound, the Ratio fungicidal activity/cytotoxicity with C. albicans (ATCC 24433) is on record as over 1; with C. albicans (ATCC 24433) (listed as novel IL) it was “highest ratios”; in data set [7], over 1; in data set [7] (listed as novel IL), “highest ratios”; in data set [2], over 1; in data set [2] (listed as novel IL), “highest ratios”. Also, the Light tolerance result in data set [6] is “tolerant of light exposure”. In data set [6], this compound had a pH of 7.2±0.2. Also, the Stability entry in data set [6] (room temperature) is “stable at room temperature for months”. Also, in data set [7] (10 mM, within 1 min), the “Reduction in viable F. solani” value is listed as 1-4 log. Besides, the “Reduction in viable conidia” value in data set [7] is 2 log10. Besides, the “Efficacy/toxicity ratio, overall rank” value in data set [1] is listed as “performed even better”. The “Antifungal / fungicidal activity in vitro” value in data set [1] is given as “effective”. Further, the “Contact time within which in vitro fungicidal activity was exhibited” value in data set [1] (species-, contact time- and concentration-dependent) lay in the range of 1 to 15 min. For the same compound, the “Reduction in viable A. fumigatus” value in data set [2] (10 mM, within 1 min) is given as 1-4 log. Also, in data set [3], the “Trypan Blue staining (% stained area per image) compared to control treatment TX-100 (1%)” value is given as “significantly lower amount of staining”. In data set [3], the “Cytotoxicity / toxicity” value is reported as “virtually non-toxic”.
Take benzalkonium chloride [BAK]: the entries for the “Reduction in viable colonies” value with C. albicans (ATCC 24433) (within 60 min) and in the data set on C. albicans (ATCC 24433) (within 120 min) were 2 log10 and 3 log10, respectively. For the same compound, the “Fungicidal activity (words)” value in the data set with C. albicans (ATCC 24433) (FIG. 1B, tenth dilution, within 120 min) is “fungicidal activity was not observed”; in the data set with C. albicans (ATCC 24433) (full strength (10,000 u/mL PMB, 40 g/mL BAK, 1 mg/mL TMP), within 120 min), “comparable to the commercially prepared Polytrim®”. In the data set on C. albicans (ATCC 24433), the Ratio fungicidal activity/cytotoxicity result is recorded as “lowest ratio”. Further, the “Reduction in viable conidia” value in data set [7] came out at 2 log10. Besides, the “Antifungal / fungicidal activity in vitro” value in data set [1] is reported as “moderate antifungal activity”. For the same compound, the “Trypan Blue staining (% stained area per image) compared to control treatment TX-100 (1%)” value in data set [3] is “significantly lower amount of staining”.
As to povidone iodine [PI], the figures for the Ratio fungicidal activity/cytotoxicity entry (in the data set with C. albicans (ATCC 24433); in data set [7]; in data set [2]) were “highest ratios”, “highest ratios; also recorded: rank highest for F. solani” and “highest ratios”, respectively. Besides, the “Reduction (kill of C. albicans)” value is on record as under 1 log in the data set on C. albicans (ATCC 24433) (PI 0.01-0.1%, within 120 min) and at least 3 log in the data set with C. albicans (ATCC 24433) (PI 0.5-1%, within 1 min). The “Tolerability on instillation into the eye” value in data set [5] (1% concentration) is “well tolerated”; in data set [5] (5% solution) it was “acutely painful”. The “Tolerability / ocular safety (words)” value in data set [5] is listed as “ocular inflammation from long-term use has occurred”. Further, in data set [1], the “Efficacy/toxicity ratio, overall rank” value is reported as “good efficacy/toxicity ratio; also recorded: ranks second after the novel IL”. The “Antifungal / fungicidal activity in vitro” value in data set [1] was “rapid and potent fungicidal activity”. The “Reduction in viable conidia” value in data set [2] (FIG. 2D, within 1 min, PI 0.5%, #3-IL 10 mM, CDG 0.05%) is 2 log10. For the same compound, the “Trypan Blue staining (% stained area per image) compared to control treatment TX-100 (1%)” value in data set [3] is listed as “significantly lower amount of staining”.
